ChEMBL document CHEMBL1201862, “PubChem BioAssay data set” (2004)
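Exposure lasted 48 hours, with cells grown in 96-well plates and compounds tested at five concentrations. The concentration for 50% growth inhibition is given as GI50.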 The source made the active and inactive calls. No stated cut-off is given here; in the data, active = GI50 up to about 1.1 µM and inactive = higher.

What was measured:
Assay in all cases: NCI tumour cell line growth inhibition, 48 h
[1] = tested on: A498
[2] = tested on: A549
[3] = tested on: IGROV-1
[4] = tested on: K562
[5] = tested on: LOX IMVI
[6] = tested on: MCF7
[7] = tested on: MOLT-4
[8] = tested on: NCI-H23
[9] = tested on: NCI-H460
[10] = tested on: OVCAR-3
[11] = tested on: OVCAR-4
[12] = tested on: OVCAR-8
[13] = tested on: UACC-257
[14] = tested on: UACC-62
[15] = tested on: 786-0
[16] = tested on: ACHN
[17] = tested on: BT-549
[18] = tested on: DU-145
[19] = tested on: T47D
[20] = tested on: TK-10

Measured: GI50

O=C1c2ccccc2OCC1/C=N/O (configuration not stated)
inactive: [1] > 100 µM | [2] > 100 µM | [3] 82.2 µM | [4] > 100 µM | [5] 31.3 µM | [6] 29.6 µM | [7] > 100 µM | [8] > 100 µM | [9] > 100 µM | [10] > 100 µM | [11] > 62.5 µM | [12] > 100 µM | [13] > 56.1 µM | [14] > 100 µM

COc1cc(/C=C(/C#N)C(N)=O)ccc1O
inactive: [1] > 63.2 µM | [2] > 100 µM | [3] > 100 µM | [4] > 100 µM | [5] > 100 µM | [6] > 100 µM | [7] > 100 µM | [8] > 100 µM | [9] > 100 µM | [10] > 100 µM | [11] > 100 µM | [12] > 100 µM | [13] > 100 µM | [14] > 100 µM

CCOC(=O)C(NC(=O)CC(C)C)(Nc1ccc(S(=O)(=O)Nc2nc(C)cc(C)n2)cc1)C(F)(F)F (configuration not stated)
inactive: [15] > 100 µM | [1] > 100 µM | [2] > 100 µM | [16] > 100 µM | [17] > 100 µM | [18] > 100 µM | [3] > 100 µM | [4] > 100 µM | [5] > 100 µM | [7] > 100 µM | [8] > 100 µM | [9] > 100 µM | [10] > 100 µM | [11] > 100 µM | [12] > 100 µM | [19] > 100 µM | [20] > 100 µM | [13] > 100 µM | [14] > 100 µM

Oc1ccc(Cl)cc1-c1cc(-c2ccccc2)nc(S)n1
inactive: [15] 26.3 µM | [1] 41.6 µM | [2] > 100 µM | [16] 30.3 µM | [18] > 100 µM | [3] > 100 µM | [4] > 100 µM | [5] > 100 µM | [6] > 100 µM | [7] > 100 µM | [8] 88.5 µM | [9] > 100 µM | [10] > 100 µM | [11] > 100 µM | [12] > 100 µM | [19] > 100 µM | [20] 30.5 µM | [13] > 100 µM

C/C(Cc1ccc2c(c1)OCO2)=N\NC(=O)C(C)Sc1nnc(SC(C)C(=O)N/N=C(\C)Cc2ccc3c(c2)OCO3)s1 (configuration not stated)
inactive: [15] > 100 µM | [1] 62.4 µM | [2] > 100 µM | [16] > 100 µM | [17] > 100 µM | [18] > 100 µM | [3] > 100 µM | [4] 32.1 µM | [5] > 100 µM | [6] 24.1 µM | [7] 27.7 µM | [8] > 100 µM | [9] > 100 µM | [10] > 100 µM | [11] > 100 µM | [12] > 100 µM | [20] > 100 µM | [13] > 100 µM | [14] > 100 µM

CC1=C2C(O)C(C(C)C(=O)NCC(C)C)CCC2(C)C=CC1=O (configuration not stated)
inactive: [1] > 100 µM | [2] > 100 µM | [3] > 100 µM | [4] > 100 µM | [5] > 100 µM | [6] > 100 µM | [7] > 100 µM | [8] > 100 µM | [9] > 100 µM | [10] > 100 µM | [11] > 100 µM | [12] > 100 µM | [13] > 100 µM | [14] > 100 µM

C=CC12CN(C)C3C4COC(CC41)C1(C(=O)Nc4ccccc41)C32 (configuration not stated)
inactive: [1] 9.29 µM | [2] 166 µM | [3] > 200 µM | [4] 165 µM | [5] > 150 µM | [6] > 200 µM | [7] > 200 µM | [8] > 173 µM | [9] 166 µM | [10] > 200 µM | [11] > 200 µM | [12] > 200 µM | [13] > 200 µM | [14] > 178 µM

COCCOCCOCCC(=O)NC1CC2CCC1(C)C2(C)C (configuration not stated)
inactive: [15] > 100 µM | [1] > 100 µM | [2] > 100 µM | [16] > 100 µM | [17] > 100 µM | [18] > 100 µM | [3] > 100 µM | [4] > 100 µM | [5] > 100 µM | [6] > 100 µM | [7] > 100 µM | [8] > 100 µM | [9] > 100 µM | [10] > 100 µM | [11] > 100 µM | [12] > 100 µM | [20] > 100 µM | [13] > 100 µM | [14] > 100 µM

COC(=O)C(=O)C(C(=O)C(=O)Nc1nc2ccc(C)cc2s1)c1nc2ccc([N+](=O)[O-])cc2nc1O (configuration not stated)
inactive: [15] > 100 µM | [1] > 100 µM | [2] > 100 µM | [16] > 100 µM | [17] > 100 µM | [3] 47.9 µM | [4] > 100 µM | [5] > 100 µM | [6] > 100 µM | [8] > 100 µM | [9] > 100 µM | [10] > 100 µM | [11] > 10 µM | [12] > 100 µM | [19] > 100 µM | [20] > 100 µM | [13] > 100 µM | [14] > 100 µM

C=C1CC=CC(C)(C)C1C/C=C(\C)C(O)CBr (configuration not stated)
inactive: [15] 28.6 µM | [1] > 100 µM | [2] 74.3 µM | [16] 53.7 µM | [17] 97.3 µM | [18] 45.4 µM | [3] 19.7 µM | [4] 67.8 µM | [5] 19.1 µM | [6] 36.2 µM | [7] 21.9 µM | [8] > 100 µM | [9] 95.7 µM | [11] 76 µM | [12] 29.4 µM | [20] 89.9 µM | [13] 54.7 µM | [14] 53.7 µM

CC(C)(C)c1ccc(O)c(C(c2ccc([N+](=O)[O-])cc2)c2cc(C(C)(C)C)ccc2O)c1
inactive: [15] 2.04 µM | [1] 2.11 µM | [2] 1.86 µM | [16] 1.85 µM | [18] 2.39 µM | [3] 2.15 µM | [4] 2.73 µM | [6] 2 µM | [7] 2.07 µM | [8] 1.99 µM | [10] 1.79 µM | [11] 1.85 µM | [12] 2.56 µM | [19] 2.65 µM | [20] 2.53 µM | [13] 1.79 µM | [14] 1.66 µM

COC(=O)C1(O)c2ccccc2N=C2C(=O)c3ccccc3N21 (configuration not stated) [METHYLISATOID]
inactive: [15] > 100 µM | [1] > 100 µM | [2] > 100 µM | [16] > 100 µM | [17] > 100 µM | [18] > 100 µM | [3] > 100 µM | [4] > 100 µM | [5] 59.7 µM | [6] > 100 µM | [7] > 100 µM | [8] > 100 µM | [9] > 100 µM | [10] 45.3 µM | [11] > 100 µM | [12] > 100 µM | [20] > 100 µM | [13] 23.8 µM

S=C(c1c[nH]c2ccccc12)N1CCCCC1
inactive: [15] > 100 µM | [1] > 100 µM | [16] > 100 µM | [17] 92.9 µM | [18] > 100 µM | [3] 67.9 µM | [4] 72.4 µM | [5] > 100 µM | [6] 84.1 µM | [7] 58.1 µM | [8] > 100 µM | [9] > 100 µM | [10] > 100 µM | [12] > 100 µM | [20] > 100 µM | [13] > 100 µM | [14] > 100 µM

COc1nc2ccc(COc3ccc(C(=O)O)cc3)cc2nc1OC
inactive: [15] > 100 µM | [1] 95.7 µM | [2] > 100 µM | [16] 80.4 µM | [18] > 100 µM | [3] > 100 µM | [4] 67.1 µM | [5] 54.1 µM | [6] > 100 µM | [7] > 100 µM | [8] > 100 µM | [9] > 100 µM | [10] > 100 µM | [11] > 100 µM | [12] 36.4 µM | [19] > 100 µM | [13] > 100 µM | [14] 33.6 µM

CC(=O)Nc1sccc1S(=O)(=O)c1ccc(Cl)cc1
inactive: [15] > 100 µM | [2] > 100 µM | [16] > 100 µM | [17] > 100 µM | [18] > 100 µM | [3] > 100 µM | [4] > 100 µM | [6] > 100 µM | [7] > 100 µM | [8] > 100 µM | [9] > 100 µM | [10] > 100 µM | [11] > 100 µM | [12] > 100 µM | [19] > 100 µM | [20] > 100 µM | [13] > 100 µM | [14] > 100 µM

COc1cccc(C2c3cc4c(cc3OC(N3CCOCC3)C2C)OCO4)c1OC (configuration not stated)
inactive: [15] 5.22 µM | [2] 9.98 µM | [16] 5.33 µM | [18] 3.21 µM | [3] 3.46 µM | [4] 2.07 µM | [5] 3.06 µM | [6] 7.91 µM | [7] 4.28 µM | [8] 14.8 µM | [9] 7.71 µM | [10] 3.04 µM | [12] 5.68 µM | [19] 3.2 µM | [20] 15.5 µM | [13] 8.02 µM | [14] 15.4 µM
